{"source": "patent US20190350964A1", "about": "“ANTI-CANCER COMPOUNDS AND USES THEREOF” (NATIONAL UNIVERSITY OF SINGAPORE, priority 2016, published 2019)", "key": {"PI5P4Kα": {"biological_target": "T1, PI5P4Kα (Homo sapiens, UniProt P48426)", "T1 construct": "gift from Daiichi Sankyo Co., Ltd. and Daiichi Sankyo RD Novare Co., Ltd", "T1 sequence (P48426 whole entry)": "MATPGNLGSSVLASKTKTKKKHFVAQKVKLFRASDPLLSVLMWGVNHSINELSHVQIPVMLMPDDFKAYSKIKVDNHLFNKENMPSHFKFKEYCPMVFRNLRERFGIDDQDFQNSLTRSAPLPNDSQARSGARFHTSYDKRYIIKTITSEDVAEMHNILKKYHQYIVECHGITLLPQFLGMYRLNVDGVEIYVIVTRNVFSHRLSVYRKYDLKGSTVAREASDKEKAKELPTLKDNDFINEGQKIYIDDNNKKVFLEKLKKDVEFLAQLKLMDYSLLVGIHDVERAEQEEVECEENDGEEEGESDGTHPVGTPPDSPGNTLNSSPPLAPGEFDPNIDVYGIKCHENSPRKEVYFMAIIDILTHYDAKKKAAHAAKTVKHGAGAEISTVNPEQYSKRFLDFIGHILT", "experiment": "Cell-free PI5P4Kα activity assay (ADP-Glo)", "format": "biochemical", "conditions": "1 h pre-incubation; PI(5)P 20 μM, ATP 10 μM; read-out: IC50, kinase activity of purified PI5P4Kα in vitro", "quoted_text": "For cell-free PI5P4Kα activity assays, serial dilutions of compounds were pre-incubated with 1 ng of PI5P4Kα (kind gift from Daiichi Sankyo Co., Ltd. and Daiichi Sankyo RD Novare Co., Ltd.) in reaction buffer [50 mM HEPES (pH 7.0), 13 mM MgCl2, 0.005% CHAPS, 0.01% BSA, 2.5 mM DTT] for 1 h at 25° C. DOPS (80 μM, Avanti polar lipids), PI(5)P (20 μM, Echelon) and ATP (10 μM, Sigma-Aldrich) were added and further incubated for 90 min at room temperature. PI5P4Kα activity was measured by recording luminescent signals (Tecan) using an ADP-Glo Kinase Assay (Promega) according to the manufacturer's protocol."}, "PIK3IP1": {"test_system": "PIK3IP1", "experiment": "qRT-PCR of PIK3IP1 mRNA in Ras- or Raf-mutant cancer cell lines", "format": "cell-based, human", "conditions": "U0126 and/or SCH772984, 24 h", "description": "[…] human […] ID NO: 11, [NT] ID NO: 12), human […] ID NO: 13, [NT] ID NO: 14), human […] ID NO: 15, [NT] ID NO: 16) and human PIK3IP1 ([NT] ID NO: 17, [NT] ID NO: 18). The TATA-binding protein (TBP) gene was used for normalization. All PCR reactions were performed in triplicate."}, "[1]": {"test_system": "normal and transformed BJ cells", "experiment": "a131 SAR analysis: pH3(Ser10) immunoblot, BrdU incorporation, subG1 FACS", "format": "cell-based, human", "set-up": "key: Group 1: possess the dual-inhibitory properties of both causing the arrest of normal BJ cells at the G1/S phase and also causing mitotic arrest/catastrophe in transformed BJ cells; Group 2: only cause the arrest of normal BJ cells at the G1/S phase; Group 3: cause mitotic arrest/catastrophe in transformed BJ cells, but do not arrest normal BJ cells at the G1/S phase; Group 4: are inactive or weakly active", "conditions": "5 μM, 48 h", "description": "(§1) Cell death was assessed via Annexin V and/or PI (propidium iodide) staining according to the manufacturer's instructions (eBioscience). Cell growth arrest was assessed by direct measurement of DNA synthesis through incorporation of the nucleoside analog bromodeoxyuridine (BrdU). Briefly, BrdU (30 μM, Sigma-Aldrich) was added for 2 h before harvesting cells. Cells were subsequently stained with Pacific Blue-conjugated BrdU antibody (Invitrogen) for 1 h followed by PI staining. Stained cells were analyzed by MACSQuant (MACS). Three independent experiments were performed in triplicate. The percentage of Annexin V/PI- or BrdU-positive cells was quantified using Flow Jo software (Becton Dickinson). Where indicated, the combined activity of caspase-3/7 was determined using the caspase-Glo 3/7 Assay Kit (Promega) and normalized to the number of viable cells as determined by MTT assay.\nTotal cell lysates were prepared with 1% triton lysis buffer [25 mM Tris HCl (pH 8.0), 150 mM NaCl, 1% triton-X100, 1 mM dithiothreitol (DTT), protease inhibitor mix (Complete Mini, Roche) and phosphatase inhibitor (PhosphoStop, Roche)] and subjected to SDS-PAGE. The following antibodies were used for immunoblotting: anti-β-actin (Sigma-Aldrich), anti-cleaved PARP (Abcam, #ab32064), anti-PI5P4Kα (#5527), anti-PI5P4Kβ (#9694), anti-cleaved caspase-3 (#9664), anti-pHistone H3(Ser10) (#3377), anti-pAkt(S473) (#9271), anti-pAkt(T308) (#13038), anti-total Akt (#9272), anti-p70S6K(T389) (#9234), anti-total p70S6K (#9202), anti-pErk (#4370), anti-γ-Histone H2AX (#9718) (Cell signaling) and anti-PIK3IP1 (Proteintech, #16826-1-AP). The secondary antibodies used were sheep anti-mouse IgG HRP and donkey anti-rabbit IgG HRP (Amersham; 1:2000 dilution). Immunoreactive proteins were visualized using ECL reagent (Amersham). Where indicated, intensities of protein bands were quantified by densitometry (Odyssey V3.0), normalized to their loading controls and then calculated as fold expression change relative to DMSO control."}, "[2]": {"test_system": "HCT-15 human colon adenocarcinoma cells", "experiment": "HCT-15 tumor xenograft in nude mice", "format": "in vivo, mouse", "conditions": "for antitumor activity (tumor volume): a131 20 mg/kg, b5 40-80 mg/kg, 12 days, paclitaxel IV", "description": "BALB/c athymic female nude mice (nu/nu, 5-7 weeks) (InVivos) were kept under specific pathogen-free (SPF) conditions. The care and use of mice was approved by the Duke-NUS IACUC in accordance with protocol 2015/SHS/1030. HCT15 human colon cancer cells (5×10^6) or MDA-MB-231 human breast cancer cells (4×10^6 with Matrigel) were subcutaneously injected into the flanks of mice. When the mean tumor volume reached 100-300 mm^3 (Day 1), the mice were randomly divided into experimental groups of 6 mice by an algorithm that moves animals around to achieve the best case distribution to assure that each treatment group has similar mean tumor burden and standard deviation. No statistical method was used to predetermine sample size. […] Paclitaxel (Cayman Chemical) was dissolved in ethanol:Tween 80=1:3 (v/v) solution followed by the addition of a 5% glucose solution (final ratio, ethanol:Tween 80:5% glucose=5:15:80) and injected via the tail vain (IV). Tumor dimensions were measured using calipers, and tumor volume (mm^3) was calculated using the formula width^2×length/2 in a blinded fashion. On Day 12 (HCT15) or Day 16 (MDA-MB-231), mice were sacrificed. Tumors were collected, fixed overnight in 4% paraformaldehyde (PFA) and stored in 70% ethanol. For immunostaining, antigens were retrieved from formaldehyde-fixed, paraffin-embedded tumor tissue sections for 30 min by boiling in sodium citrate buffer (pH 6.0) using a microwave histoprocessor (Milestone). Endogenous peroxidase activity in tissue sections was depleted by treatment with 3% hydrogen peroxide (H2O2 in 1×TBS) for 20 min at room temperature. Tumor tissue sections were incubated overnight with anti-β-tubulin (Abcam; 1:100 in 3% BSA/TBS-Tween 20) at 4° C. followed by incubation with goat anti-rabbit FITC-conjugated secondary antibody (Invitrogen; 1:200 in 3% BSA/TBS) for 1 h at 25° C. After dehydration treatment, coverslips were mounted using DAPI mounting medium (Vector). Images were acquired in 3D-SIM mode using a super resolution microscope (Nikon), and the number of cells with either 2 or mitotic-spindles was quantified (n>50 cells per section, 6-7 sections per treatment). For detection of apoptosis using the TUNEL method, the ApopTag Plus Peroxidase In Situ Apoptosis Detection Kit (Millipore) was used for formaldehyde-fixed, paraffin-embedded tumor tissue sections treated with b5 (80 mg/kg, IP) or control vehicle for 12 days. Slide scans were acquired using a MetaSystems Metafer built on a Zeiss Axiolmager Z.2 upright microscope. The system is equipped with a CoolCubel camera and a Zeiss Plan-Neofluar 20×/0.5 Ph2 objective lens. Image acquisition was controlled with Metafer4 software, and stitching was performed with the VSlide software and further processed using the open source software FIJI. A custom macro was used to batch process the images in the following sequence: Gaussian filter, color deconvolution of hematoxylin and DAB, thresholding the hematoxylin image, watershed to separate touching nuclei, and then count the number of hematoxylin-stained nuclei. For the DAB image, a fixed threshold was used, watershed applied and the number of DAB stained nuclei counted. In all cases, no data or animals were excluded and results are expressed as mean and standard deviation of the mean."}, "[3]": {"test_system": "MDA-MB-231 human breast tumor cells", "experiment": "MDA-MB-231 tumor xenograft in nude mice", "format": "in vivo, mouse", "conditions": "a131 20 mg/kg, b5 40-80 mg/kg, PO or IP twice daily, 15 days", "description": "BALB/c athymic female nude mice (nu/nu, 5-7 weeks) (InVivos) were kept under specific pathogen-free (SPF) conditions. The care and use of mice was approved by the Duke-NUS IACUC in accordance with protocol 2015/SHS/1030. HCT15 human colon cancer cells (5×10^6) or MDA-MB-231 human breast cancer cells (4×10^6 with Matrigel) were subcutaneously injected into the flanks of mice. When the mean tumor volume reached 100-300 mm^3 (Day 1), the mice were randomly divided into experimental groups of 6 mice by an algorithm that moves animals around to achieve the best case distribution to assure that each treatment group has similar mean tumor burden and standard deviation. No statistical method was used to predetermine sample size. […] Tumor dimensions were measured using calipers, and tumor volume (mm^3) was calculated using the formula width^2×length/2 in a blinded fashion. […] Images were acquired in 3D-SIM mode using a super resolution microscope (Nikon), and the number of cells with either 2 or mitotic-spindles was quantified (n>50 cells per section, 6-7 sections per treatment). […] For the DAB image, a fixed threshold was used, watershed applied and the number of DAB stained nuclei counted. In all cases, no data or animals were excluded and results are expressed as mean and standard deviation of the mean."}, "[4]": {"test_system": "normal and transformed BJ cells", "experiment": "Crystal violet / MTT viability of isogenic normal and transformed BJ cells", "conditions": "72 h; crystal violet and MTT (0.1-40 μM)"}, "[5]": {"test_system": "normal and transformed BJ cells", "experiment": "Chemoprotection: a166 pre-treatment followed by a159, paclitaxel or etoposide", "format": "cell-based, human", "conditions": "without a166 pre-treatment", "description": "as §1"}}, "data": [{"smiles": "COc1cc(/C=C(\\C#N)C(=O)c2ccc(O)c(O)c2)cc(I)c1O", "note": "[I-OMe-AG-538]", "values": [{"measurement": "IC50", "setting": "PI5P4Kα", "value": 2100, "unit": "nM"}]}, {"smiles": "O=C(Nc1ccc2[nH]nc(-c3ccncc3)c2c1)[C@@H]1CCN(CC(=O)N2CCN(c3ccc(-c4ncccn4)cc3)CC2)C1", "note": "[SCH772984]", "values": [{"measurement": "PIK3IP1 mRNA expression after MEK/ERK inhibition", "setting": "PIK3IP1", "value": "attenuates Ras- and Raf-mediated suppression of PIK3IP1"}]}, {"smiles": "N#CC(=C(/N)Sc1ccccc1N)/C(C#N)=C(\\N)Sc1ccccc1N", "note": "[U0126]", "values": [{"measurement": "PIK3IP1 mRNA expression after MEK/ERK inhibition", "setting": "PIK3IP1", "value": "attenuates Ras- and Raf-mediated suppression of PIK3IP1"}]}, {"smiles": "N#C/C(=C\\c1cncc2ccccc12)c1c[nH]c2ccccc12", "note": "[a132]", "values": [{"measurement": "Group (a131 SAR analysis)", "setting": "[1]", "value": "Group 4"}]}, {"smiles": "N#C/C(=C\\c1cccc2cccnc12)c1c[nH]c2ccccc12", "note": "[a158]", "values": [{"measurement": "Group (a131 SAR analysis)", "setting": "[1]", "value": "Group 2"}]}, {"smiles": "N#C/C(=C\\c1cccc2ncccc12)c1c[nH]c2ccccc12", "note": "[a159]", "values": [{"measurement": "Group (a131 SAR analysis)", "setting": "[1]", "value": "Group 3"}]}, {"smiles": "N#C/C(=C\\c1cccc2cnccc12)c1c[nH]c2ncccc12", "note": "[a167]", "values": [{"measurement": "Group (a131 SAR analysis)", "setting": "[1]", "value": "Group 4"}]}, {"smiles": "N#C/C(=C\\c1cccc2cnccc12)c1nc2ccccc2[nH]1", "note": "[a169]", "values": [{"measurement": "Group (a131 SAR analysis)", "setting": "[1]", "value": "Group 4"}]}, {"smiles": "CN1CCN(CC(=O)n2cc(/C(C#N)=C/c3cccc4cnccc34)c3ccccc32)CC1", "note": "[b5, (Z)-3-(isoquinolin-5-yl)-2-(1-(2-(4-methylpiperazin-1-yl)acetyl)-1H-indol-3-yl)acrylonitrile]", "values": [{"measurement": "cancer cell death in tumor sections (TUNEL staining)", "setting": "[2]; HCT-15 tumor sections, Day 12, b5 80 mg/kg IP", "value": "cancer cell death as determined by TUNEL staining"}, {"measurement": "antitumor activity (tumor volume)", "setting": "[2]; PO or IP twice daily", "value": "marked antitumor efficacies"}, {"measurement": "body weight loss", "setting": "[2]; xenograft-bearing mice, PO or IP twice daily", "value": "without any body weight loss"}, {"measurement": "Group (a131 SAR analysis)", "setting": "[1]", "value": "Group 1"}, {"measurement": "antitumor activity (tumor volume)", "setting": "[3]", "value": "marked antitumor efficacies"}]}, {"smiles": "CC(=O)NCCC(=O)n1cc(/C(C#N)=C/c2cccc3cnccc23)c2ccccc21", "note": "[b9]", "values": [{"measurement": "Group (a131 SAR analysis)", "setting": "[1]", "value": "Group 1"}]}, {"smiles": "N#C/C(=C\\c1cccc2cnccc12)c1c[nH]c2ccc(OCCCN3CCCC3)cc12", "note": "[b12]", "values": [{"measurement": "Group (a131 SAR analysis)", "setting": "[1]", "value": "Group 2"}]}, {"smiles": "COCCOc1ccc2[nH]cc(/C(C#N)=C/c3cccc4cnccc34)c2c1", "note": "[b16]", "values": [{"measurement": "Group (a131 SAR analysis)", "setting": "[1]", "value": "Group 2"}]}, {"smiles": "CN1CCN(C(=O)Cn2cc(/C(C#N)=C/c3cccc4cnccc34)c3ccccc32)CC1", "note": "[b94]", "values": [{"measurement": "Group (a131 SAR analysis)", "setting": "[1]", "value": "Group 2"}]}, {"smiles": "COC(=O)Nc1nc2ccc(C(=O)c3cccs3)cc2[nH]1", "note": "[nocodazole]", "values": [{"measurement": "selective killing of transformed versus normal BJ cells (cell viability)", "setting": "[4]", "value": "showed minimal selectivity"}]}, {"smiles": "CC(=O)O[C@H]1C(=O)[C@@]2(C)[C@H]([C@H](OC(=O)c3ccccc3)[C@]3(O)C[C@H](OC(=O)[C@H](O)[C@@H](NC(=O)c4ccccc4)c4ccccc4)C(C)=C1C3(C)C)[C@]1(OC(C)=O)CO[C@@H]1C[C@@H]2O", "note": "[paclitaxel]", "values": [{"measurement": "antitumor activity (tumor volume)", "setting": "[2]; PO or IP twice daily", "value": "did not show significant antitumor activity"}, {"measurement": "selectivity against transformed BJ cells, treatment alone", "setting": "[5]", "value": "showed minimal selectivity against transformed BJ cells"}, {"measurement": "selective killing of transformed versus normal BJ cells (cell viability)", "setting": "[4]", "value": "showed minimal selectivity"}]}]}
